Test results reported in patent publication US10183946B2, “Triazolo[4,5-D]pyrimidines” (Hoffmann—La Roche Inc., priority 2014, dated 2019).
Read-outs that look alike come from different tables or passages of the source.

Legend:
[1] = target: human CB1 receptors (Homo sapiens (Human), UniProt P21554); test: cAMP assay, CHO cells expressing human CB1 receptors; type: cell-based
Description: (§1) CHO cells expressing human CB1 or CB2 receptors are seeded 17-24 hours prior to the experiment 50.000 cells per well in a black 96 well plate with flat clear bottom (Corning Costar #3904) in DMEM (Invitrogen No. 31331), 1×HT supplement, with 10% fetal calf serum and incubated at 5% CO2 and 37° C. in a humidified incubator. The growth medium was exchanged with Krebs Ringer Bicarbonate buffer with 1 mM IBMX and incubated at 30° C. for 30 min. Compounds were added to a final assay volume of 100 μl and incubated for 30 min at 30° C. Using the cAMP-Nano-TRF detection kit the assay (Roche Diagnostics) was stopped by the addition of 50 μl lysis reagent (Tris, NaCl, 1.5% Triton X100, 2.5% NP40, 10% NaN3) and 50 μl detection solutions (20 μM mAb Alexa700-cAMP 1:1, and 48 μM Ruthenium-2-AHA-cAMP) and shaken for 2 h at room temperature. The time-resolved energy transfer is measured by a TRF reader (Evotec Technologies GmbH), equipped with a ND:YAG laser as excitation source. The plate is measured twice with the excitation at 355 nm and at the emission with a delay of 100 ns and a gate of 100 ns, total exposure time 10 s at 730 (bandwidth 30 nm) or 645 nm (bandwidth 75 nm), respectively. The FRET signal is calculated as follows: FRET=T730-Alexa730-P(T645-B645) with P=Ru730-B730/Ru645-B645, where T730 is the test well measured at 730 nM, T645 is the test well measured at 645 nm, B730 and B645 are the buffer controls at 730 nm and 645 nm, respectively. cAMP content is determined from the function of a standard curve spanning from 10 μM to 0.13 nM cAMP.
(§2) EC50 values were determined using Activity Base analysis (ID Business Solution, Limited). The EC50 values for a wide range of cannabinoid agonists generated from this assay were in agreement with the values published in the scientific literature.

[2] = target: human CB2 receptors (Homo sapiens (Human), UniProt P34972); test: cAMP assay, CHO cells expressing human CB2 receptors; type: cell-based; conditions: functional cAMP assay, read-out: CB2 hcAMP EC50
Sequence of human CB2 receptors (P34972 whole entry): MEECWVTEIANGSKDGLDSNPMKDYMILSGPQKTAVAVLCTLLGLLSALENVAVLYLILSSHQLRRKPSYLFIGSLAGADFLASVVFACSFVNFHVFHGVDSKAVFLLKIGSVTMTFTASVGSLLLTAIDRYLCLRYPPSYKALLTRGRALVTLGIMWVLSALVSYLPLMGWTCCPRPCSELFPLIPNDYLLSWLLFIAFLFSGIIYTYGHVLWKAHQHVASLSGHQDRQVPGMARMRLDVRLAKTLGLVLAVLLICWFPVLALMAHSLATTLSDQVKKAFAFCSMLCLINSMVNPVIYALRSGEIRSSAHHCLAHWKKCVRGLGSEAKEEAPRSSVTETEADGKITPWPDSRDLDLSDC
Description: as §1, §2

[3] = functional cAMP assay, CHO cells expressing human CB1, read-out: CB1 hcAMP EC50

Sequence of human CB1 receptors (P21554 whole entry): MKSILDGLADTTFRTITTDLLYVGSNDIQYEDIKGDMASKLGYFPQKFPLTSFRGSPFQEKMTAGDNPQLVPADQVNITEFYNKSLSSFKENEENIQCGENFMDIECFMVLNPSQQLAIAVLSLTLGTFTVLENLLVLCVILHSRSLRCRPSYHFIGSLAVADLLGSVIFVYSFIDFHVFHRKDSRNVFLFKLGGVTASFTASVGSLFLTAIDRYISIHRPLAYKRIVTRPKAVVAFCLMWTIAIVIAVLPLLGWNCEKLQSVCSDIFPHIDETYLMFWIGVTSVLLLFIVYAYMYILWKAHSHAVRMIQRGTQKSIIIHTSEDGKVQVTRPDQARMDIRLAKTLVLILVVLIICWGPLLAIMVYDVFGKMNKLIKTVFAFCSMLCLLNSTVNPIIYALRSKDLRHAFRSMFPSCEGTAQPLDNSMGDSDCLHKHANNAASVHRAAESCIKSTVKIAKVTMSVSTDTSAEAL

Compound	EC50 [1, 3]	EC50 [2]	EC50 [1]
Cn1nccc1-c1nc(C(C)(C)C)nc2c1nnn2CC(O)CC(F)(F)F (stereo not shown) [Example 16, 1-[5-tert-butyl-7-(2-methylpyrazol-3-yl)triazolo[4,5-d]pyrimidin-3-yl]-4,4,4-trifluorobutan-2-ol]	> 10000 nM	42.4 nM	
Cn1nccc1-c1nc(C(C)(C)C)nc2c1nnn2C[C@H](O)C(F)(F)F [Example 17, (2S)-3-[5-tert-butyl-7-(2-methylpyrazol-3-yl)triazolo[4,5-d]pyrimidin-3-yl]-1,1,1-trifluoropropan-2-ol]	> 10000 nM	77.2 nM	
Cn1nccc1-c1nc(C(C)(C)C)nc2c1nnn2C1CCOC1 (stereo not shown) [Example 18, 5-tert-butyl-7-(2-methylpyrazol-3-yl)-3-(oxolan-3-yl)triazolo[4,5-d]pyrimidine]	> 10000 nM	86 nM	
Cn1nccc1-c1nc(C(C)(C)C)nc2c1nnn2C1COC1 [Example 19, 5-tert-butyl-7-(2-methylpyrazol-3-yl)-3-(oxetan-3-yl)triazolo[4,5-d]pyrimidine]	> 10000 nM	190 nM	
Cn1nccc1-c1nc(C(C)(C)C)nc2c1nnn2Cc1ncccc1Cl [Example 21, 5-tert-butyl-3-[(3-chloropyridin-2-yl)methyl]-7-(2-methylpyrazol-3-yl)triazolo[4,5-d]pyrimidine]	> 10000 nM	39.5 nM	
Cn1nccc1-c1nc(C(C)(C)C)nc2c1nnn2CC(C)(C)O [Example 22, 1-[5-tert-butyl-7-(2-methylpyrazol-3-yl)triazolo[4,5-d]pyrimidin-3-yl]-2-methylpropan-2-ol]	> 10000 nM	206 nM	
Cn1nccc1-c1nc(C(C)(C)C)nc2c1nnn2CC1(C)COC1 [Example 23, 5-tert-butyl-3-[(3-methyloxetan-3-yl)methyl]-7-(2-methylpyrazol-3-yl)triazolo[4,5-d]pyrimidine]	> 10000 nM	445 nM	
Cn1cc(-c2nc(C(C)(C)C)nc3c2nnn3Cc2nnnn2C)cn1 [Example 24, 5-tert-butyl-7-(1-methylpyrazol-4-yl)-3-[(1-methyltetrazol-5-yl)methyl]triazolo[4,5-d]pyrimidine]	> 10000 nM	156 nM	
Cn1nnnc1Cn1nnc2c(-c3cn[nH]c3)nc(C(C)(C)C)nc21 [Example 25, 5-tert-butyl-3-[(1-methyltetrazol-5-yl)methyl]-7-(1H-pyrazol-4-yl)triazolo[4,5-d]pyrimidine]	> 10000 nM	32 nM	
Cn1nnnc1Cn1nnc2c(-c3cc[nH]n3)nc(C(C)(C)C)nc21 [Example 26, 5-tert-butyl-3-[(1-methyltetrazol-5-yl)methyl]-7-(1H-pyrazol-3-yl)triazolo[4,5-d]pyrimidine]	> 10000 nM	578 nM	
Cc1oncc1-c1nc(C(C)(C)C)nc2c1nnn2Cc1nnnn1C [Example 27, 4-[5-tert-butyl-3-[(1-methyltetrazol-5-yl)methyl]triazolo[4,5-d]pyrimidin-7-yl]-5-methyl-1,2-oxazole]	> 10000 nM	515 nM	
Cn1nnnc1Cn1nnc2c(-c3ncc[nH]3)nc(C(C)(C)C)nc21 [Example 28, 5-tert-butyl-7-(1H-imidazol-2-yl)-3-[(1-methyltetrazol-5-yl)methyl]triazolo[4,5-d]pyrimidine]	> 10000 nM	12.5 nM	
Cn1nnnc1Cn1nnc2c(-c3cnnn3Cc3ccccc3)nc(C(C)(C)C)nc21 [Example 29, 7-(3-benzyltriazol-4-yl)-5-tert-butyl-3-[(1-methyltetrazol-5-yl)methyl]triazolo[4,5-d]pyrimidine]	> 10000 nM	16.6 nM	
CC(C)(C)c1nc(C2(O)CCC2)c2nnn(Cc3ccccc3)c2n1 [Example 31, 1-(3-Benzyl-5-tert-butyltriazolo[4,5-d]pyrimidin-7-yl)cyclobutan-1-ol]	645 nM	4.5 nM	
CC(C)(C)c1nc(C2(F)CCC2)c2nnn(Cc3ccccc3)c2n1 [Example 32, 3-Benzyl-5-tert-butyl-7-(1-fluorocyclobutyl)triazolo[4,5-d]pyrimidine]	> 10000 nM	24 nM	
CC(C)(C)c1nc(C2(O)CCC2)c2nnn(Cc3ccccc3Cl)c2n1 [Example 33, 1-[5-tert-Butyl-3-[(2-chlorophenyl)methyl]triazolo[4,5-d]pyrimidin-7-yl]cyclobutanol]	> 10000 nM	233 nM	
CC(C)(C)c1nc(C2(O)CCCC2)c2nnn(Cc3ccccc3Cl)c2n1 [Example 34, 1-[5-tert-Butyl-3-[(2-chlorophenyl)methyl]triazolo[4,5-d]pyrimidin-7-yl]cyclopentanol]	> 10000 nM	35.3 nM	
CC(C)(C)c1nc(C2(O)CCCCC2)c2nnn(Cc3ccccc3Cl)c2n1 [Example 35, 1-[5-tert-Butyl-3-[(2-chlorophenyl)methyl]triazolo[4,5-d]pyrimidin-7-yl]cyclohexanol]	> 10000 nM	172 nM	
CC(C)(C)c1nc(C2(O)CCCCCC2)c2nnn(Cc3ccccc3Cl)c2n1 [Example 36, 1-[5-tert-Butyl-3-[(2-chlorophenyl)methyl]triazolo[4,5-d]pyrimidin-7-yl]cycloheptanol]	> 10000 nM	17.3 nM	
CC(C)(C)c1nc(C2(O)CCCCCCC2)c2nnn(Cc3ccccc3Cl)c2n1 [Example 37, 1-[5-tert-Butyl-3-[(2-chlorophenyl)methyl]triazolo[4,5-d]pyrimidin-7-yl]cyclooctanol]		126 nM	> 10000 nM
CCC(O)(CC)c1nc(C(C)(C)C)nc2c1nnn2Cc1ccccc1Cl [Example 38, 3-[5-tert-Butyl-3-[(2-chlorophenyl)methyl]triazolo[4,5-d]pyrimidin-7-yl]pentan-3-ol]	> 10000 nM	45.3 nM	
CC(C)(C)c1nc(C2(O)CSC2)c2nnn(Cc3ccccc3Cl)c2n1 [Example 39, 3-[5-tert-Butyl-3-[(2-chlorophenyl)methyl]triazolo[4,5-d]pyrimidin-7-yl]thietan-3-ol]	> 10000 nM	168 nM	
CC(C)(C)c1nc2c(nnn2Cc2ccccc2Cl)c([C@]2(O)C[C@H](C(F)F)C2)n1 [Example 40, Trans-1-[5-tert-Butyl-3-[(2-chlorophenyl)methyl]triazolo[4,5-d]pyrimidin-7-yl]-3-(difluoromethyl)cyclobutanol]	1810 nM	9.8 nM	
CC(C)(C)c1nc2c(nnn2Cc2ccccc2Cl)c([C@]2(O)C[C@@H](C(F)F)C2)n1 [Example 41, Cis-1-[5-tert-Butyl-3-[(2-chlorophenyl)methyl]triazolo[4,5-d]pyrimidin-7-yl]-3-(difluoromethyl)cyclobutanol]	> 10000 nM	30.5 nM	
CC(C)(C)c1nc(C2(O)C[S+]([O-])C2)c2nnn(Cc3ccccc3Cl)c2n1 (stereo not shown) [Example 42, 3-[5-tert-Butyl-3-[(2-chlorophenyl)methyl]triazolo[4,5-d]pyrimidin-7-yl]-1-oxo-thietan-3-ol]	> 10000 nM	110 nM	
CC(C)(C)c1nc(C2(CF)CC2)c2nnn(Cc3ccccc3Cl)c2n1 [Example 43, 5-tert-Butyl-3-[(2-chlorophenyl)methyl]-7-[1-(fluoromethyl)cyclopropyl]triazolo[4,5-d]pyrimidine]	> 10000 nM	903 nM	
CC(C)(C)c1nc(C2=CCCC2)c2nnn(Cc3ccccc3Cl)c2n1 [Example 44, 5-tert-Butyl-3-[(2-chlorophenyl)methyl]-7-(cyclopenten-1-yl)triazolo[4,5-d]pyrimidine]	> 10000 nM	4 nM	
CC(C)(C)c1nc(C2CCCC2)c2nnn(Cc3ccccc3Cl)c2n1 [Example 45a, 5-tert-Butyl-3-[(2-chlorophenyl)methyl]-7-cyclopentyl-triazolo[4,5-d]pyrimidine]	> 10000 nM	94.4 nM	
CC(C)(C)c1nc(C2CCCC2)c2nnn(Cc3ccccc3)c2n1 [Example 45b, 3-benzyl-5-tert-butyl-7-cyclopentyl-triazolo[4,5-d]pyrimidine]	> 10000 nM	30 nM	
